PubChem BioAssay AID489026 (Sanford-Burnham Center for Chemical Genomics, 2010)
Activity calls are given as the source filed them. The rule behind the calls is not given here.

System: HEK-293T cytotoxicity, luminescence viability
Assay: cytotoxicity in HEK-293T cells, dose response, cytotoxicity control, luminescence, T-cell screen hits (AID 489026)

SMILES | IC50
C[C@@H]1O[C@@H](O[C@H]2C[C@@H](O)[C@]3(CO)[C@@H]4C(CC[C@]3(O)C2)[C@@]2(O)CC[C@H](C3COC(=O)C3)[C@@]2(C)C[C@H]4O)[C@H](O)[C@H](O)[C@H]1O (some centres not stated) | > 80 µM (inactive)
C=C(C=O)C[C@@H]1C[C@H](O)C2OC3C[C@]4(C)OC5/C=C\CC6OC7C(CC=CCC6OC5CCCC4OC3CC2O1)OC1CC2OC3CC(=O)OC3C[C@@H](C)C[C@@]2(C)OC1C[C@@H]7C (some centres not stated) | 39.8 µM (inactive)
